# Assay results taken from patent US20060258576A1, “Gdnf-related neuropeptides” (Licentia, Ltd, priority 2003, published 2006).
# “Also recorded” adds a separate entry of the source. No end group written: not given here.
# B1: glial cell line-derived neurotrophic factor (protein, UniProt P39905 78-211, looked up)
# Glial cell line-derived …: SPDKQMAVLPRRERNRQAAAANPENSRGKGRRGQRGKNRGCVLTAIHLNVTDLGLGYETKEELIFRYCSGSCDAAETTYDKILKNLSRNRRLVSDKVGQACCRPIAFDDDLSFLDDNLVYHILRKHSAKRCGCI
# notes: neurotrophic factor, literature comparison
# Tests used:
# hippocampus area CA1 = assay: Extracellular recordings (pEPSPs, population spikes) in acute rat hippocampal brain slice preparation; type: cell-based; conditions: for pEPSPs, fraction of control (FIG. 4D) / pSpikes, fraction of control (FIG. 4C): 10 nM SEQ ID NO:11, 20 nM SEQ ID NO:9 and SEQ ID NO:15, 250 μM NEM, adult rat hippocampus; for excitatory synaptic input into primary cells in the rat CA1: acute rat hippocampal brain slice; for reversal of effects upon removal of peptide from the superfusate: washout
# embryonic mouse tissues = assay: Binding of I125-labeled peptides to embryonic mouse tissues (autoradiography, Tuj1 staining)
# From the text: (§1) The binding of I^125-labeled peptides to embryonic and adult rodent tissues was studied in vitro. Chemically synthesized peptides containing an extra N-terminal tyrosine (Sigma-Genosys, Cambridge, UK) were labeled with lactoperoxidase (Trupp et al. (1995) J. Cell Biol. 130(1): 137-148). Specific activities obtained for each were 0.5-2.5×10^14 cpm/mmol, except for SEQ ID NO:9 10^13 cpm/mmol. From both E17 Wistar rat and E15 mouse embryos, kidneys, gut, pancreas and spinal cord were dissected. In addition, testes, ovaries, brain and adrenal glands of the embryonic mice were taken. The binding was performed and paraffin sections of embryonic tissues were processed as described (Partanen et al. (1987) Dev Biol 120(1): 186-197). Freshly cut adult rat brain slices of 1 mm were cut and incubated in 0.5-1 nmol/ml of ^125I-peptides, washed and processed for paraffin sections. Kodak (Rochester, N.Y.) NTB-2 emulsion was used for autoradiography and the samples were exposed from 3 to 12 weeks at +4° C. The sections were developed with Kodak D19 and stained with hematoxylin.
# For immunohistochemical staining of tissues, paraffin sections were mounted with Immumount (Shandon, Pittsburgh, Pa.). Sections were stained with an anti-class III β-tubulin antibody (Tuj1; Covance Inc., Princeton, N.J.), which recognizes selectively neuronal cells. Staining was performed with Vectastain kit (Vector Laboratories, Burlingame, Calif.) according to manufacturer's instructions, except that the primary antibody (1:300) was incubated in +4° C. o/n.
# adult rat brain = assay: Binding of I125-labeled peptides to adult rat brain slices (autoradiography)
# From the text: as §1
# For immunohistochemical staining of tissues, paraffin sections were mounted with Immumount (Shandon, Pittsburgh, Pa.). Sections were stained with an anti-class III β-tubulin antibody (Tuj1; Covance Inc., Princeton, N.J.), which recognizes selectively neuronal cells. […]
# synaptic transmission = conditions: Qian et al (1997); cited from earlier work
# primary neurons = conditions: U. Arumäe, personal communication; cited from earlier work
# ureteric branching = conditions: Sainio et al. (1997); cited from earlier work
# [1] = 10 nM peptide in the presence of 250 μM NEM
# [2] = superfusion with 10-50 nM, 0.05 Hz stimulation of Schaffer collateral fibres, CA1, slices from P28-P35 rats
molecule,measurement,setting,value
"CCN1C(=O)C=CC1=O [NEM, N-ethylmaleimide, reference compound]","pEPSPs, fraction of control (FIG. 4D)",hippocampus area CA1,increases
same,"pSpikes, fraction of control (FIG. 4C)",hippocampus area CA1,increases
same,stimulus-evoked responses,"hippocampus area CA1; NEM by bath perfusion, every slice recorded",increased
"FPLPA(a) (FPLPA-NH2; not fully specified) [SEQ ID NO:9, GDNF precursor-derived neuropeptide; human, mouse, rat]",specific binding,embryonic mouse tissues; I125-labeled peptide with extra N-terminal tyrosine,specific binding
same,tissue distribution of binding,"embryonic mouse tissues; I125-labeled peptide, E15 mouse embryo tissues",restricted to embryonic mouse tissues outside the CNS; also recorded: bound to embryonic (E15) mouse tissues
same,binding in testis,"embryonic mouse tissues; embryonic mouse testis (FIG. 3 I, J)",binding to the interstitium
same,distribution of binding versus neuronal β-tubulin (Tuj1) staining,embryonic mouse tissues; gut and metanephric kidney capsule (FIG. 3 E-H),closely overlapped
same,presynaptic fiber volley (in words),"hippocampus area CA1; CA1, rat hippocampal slices",significant decrease
same,change of pSPs,"hippocampus area CA1; CA1, rat hippocampal slices, concentration not given",−24%
same,excitatory synaptic input into primary cells in the rat CA1,hippocampus area CA1,modulate
same,reversal of effects upon removal of peptide from the superfusate,hippocampus area CA1,fully or almost fully reversed
"LLEAPAEDHSL(a) (LLEAPAEDHSL-NH2; not fully specified) [SEQ ID NO:11, GDNF precursor-derived neuropeptide; mouse, rat]",specific binding,"adult rat brain; I125-labeled peptide with extra N-terminal tyrosine, 0.5-1 nmol/ml",specific binding
same,binding to adult rat brain slices (FIG. 3 A-D),"adult rat brain; I125-labeled peptide, sections containing the hippocampal area",extensive binding exclusively in adult rat brain; also recorded: intensive binding
same,"pEPSPs, fraction of control (FIG. 4D)",hippocampus area CA1,substantially increases
same,"pSpikes, fraction of control (FIG. 4C)",hippocampus area CA1,substantially increases
same,pEPSPs when peptide is added to NEM,hippocampus area CA1; [1],no further increase
same,pSpikes when peptide is added to NEM,hippocampus area CA1; [1],no further increase
same,"increase in presynaptic volley with or without NEM (FIG. 4 A, B)","hippocampus area CA1; 10 nM peptide, absence or presence of 250 μM NEM",seen only in the absence of NEM
same,average increase in the presynaptic fiber volley,"hippocampus area CA1; CA1, rat hippocampal slices",34%
same,excitatory synaptic input into primary cells in the rat CA1,hippocampus area CA1,modulate
same,effect on excitability in the presence of a Gi/o-blocking agent,"hippocampus area CA1; in the presence of NEM (FIG. 4 B, C, D)",no effect
same,effective concentrations on pEPSP and pSpike (FIG. 6),hippocampus area CA1; increasing concentrations,nanomolar
same,increase of pEPSPs,hippocampus area CA1; [2],30-40%
same,increase of population spikes (pSPs),hippocampus area CA1; [2],30-40%
same,reversal of effects upon removal of peptide from the superfusate,hippocampus area CA1,fully or almost fully reversed
"PYY3-36: peptide YY fragment, literature comparison",levels necessary for inhibition of synaptic transmission,synaptic transmission,1 µM
neuropeptide Y [NPY],levels necessary for inhibition of synaptic transmission,synaptic transmission,1 µM
B1,concentrations required for maintenance of primary neurons,primary neurons,nanomolar
same,concentrations required for promotion of ureteric branching,ureteric branching,nanomolar
